Measurements published in ChEMBL document CHEMBL4814026, “Discovery of novel reversible monoacylglycerol lipase inhibitors via docking-based virtual screening” (Bioorg Med Chem Lett, 2021).
pIC50, pKd: −log10 of the molar value. Active and inactive are the calls of the source. The calls are words filed in the database; no cut-off is given here.

Columns and labels:
Monoglyceride lipase [1] = target: T1, Monoglyceride lipase (Homo sapiens, UniProt Q99685); assay: Inhibition of MAGL (unknown origin)
T1 sequence (Q99685 whole entry): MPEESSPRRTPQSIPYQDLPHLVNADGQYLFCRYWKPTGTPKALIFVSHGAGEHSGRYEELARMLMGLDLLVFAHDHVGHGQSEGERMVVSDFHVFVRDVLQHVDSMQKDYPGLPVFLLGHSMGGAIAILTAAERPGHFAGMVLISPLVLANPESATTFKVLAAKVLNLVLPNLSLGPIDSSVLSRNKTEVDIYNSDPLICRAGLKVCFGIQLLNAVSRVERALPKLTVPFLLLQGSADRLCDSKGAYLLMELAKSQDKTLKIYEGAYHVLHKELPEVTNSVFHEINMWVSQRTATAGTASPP

[2] = target: T2, Monoglyceride lipase (Mus musculus) (UniProt O35678); assay: Inhibition of MAGL in mouse RAW264.7 cells assessed as increase in 2-AG level at 30 uM; format: cell-based
T2 sequence (whole entry): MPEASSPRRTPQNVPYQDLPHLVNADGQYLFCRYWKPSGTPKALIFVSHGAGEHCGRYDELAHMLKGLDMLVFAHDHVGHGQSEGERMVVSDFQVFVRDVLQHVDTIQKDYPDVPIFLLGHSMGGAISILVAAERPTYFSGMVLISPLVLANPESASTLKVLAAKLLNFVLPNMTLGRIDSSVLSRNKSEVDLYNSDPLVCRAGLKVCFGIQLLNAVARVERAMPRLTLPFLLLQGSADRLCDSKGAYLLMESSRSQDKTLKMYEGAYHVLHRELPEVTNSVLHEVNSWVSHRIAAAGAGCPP

RAW264.7 [3] = assay: Antiinflammatory activity in mouse RAW264.7 cells assessed as reduction in LPS-induced IL-6 mRNA expression measured after 24 hrs by RT-PCR analysis; format: functional, cell-based; conditions: dose 20-40 µM
RAW264.7 [4] = assay: Antiinflammatory activity in mouse RAW264.7 cells assessed as reduction in LPS-induced IL-1beta mRNA expression measured after 24 hrs by RT-PCR analysis; format: functional, cell-based; conditions: dose 20-40 µM
Monoglyceride lipase [5] = target: T1, Monoglyceride lipase; assay: Binding affinity to MAGL (unknown origin) by SPR analysis
[6] = target: T3, Monoglyceride lipase (Homo sapiens) (UniProt Q99685); assay: Inhibition of MAGL (unknown origin) in presence of DTT
T3 sequence (whole entry): T1 sequence (Q99685 whole entry)

RAW264.7 [7] = assay: Antiinflammatory activity in mouse RAW264.7 cells assessed as reduction in LPS-induced CCL-2 mRNA expression measured after 24 hrs by RT-PCR analysis; format: functional, cell-based; conditions: dose 20-40 µM
[8] = target: T3, Monoglyceride lipase (Homo sapiens); assay: Reversible inhibition of MAGL (unknown origin)
Monoglyceride lipase [9] = target: T4, Monoglyceride lipase (Rattus norvegicus, UniProt Q8R431); assay: Inhibition of recombinant rat MAGL by LC-MS analysis
T4 sequence (Q8R431 whole entry): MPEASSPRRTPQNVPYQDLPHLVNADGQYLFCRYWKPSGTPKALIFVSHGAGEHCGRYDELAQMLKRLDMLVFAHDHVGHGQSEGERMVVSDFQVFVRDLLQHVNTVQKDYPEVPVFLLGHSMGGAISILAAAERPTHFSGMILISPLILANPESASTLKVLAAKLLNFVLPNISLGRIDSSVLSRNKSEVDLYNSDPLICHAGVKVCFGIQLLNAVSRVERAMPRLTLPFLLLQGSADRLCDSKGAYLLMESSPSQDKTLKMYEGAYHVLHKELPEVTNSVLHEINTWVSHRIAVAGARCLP

**Q.** `O=C(c1ccc2nc(N3CCCCC3)sc2c1)N1CCN(c2ccccn2)CC1` was tested. Which pIC50 (Monoglyceride lipase [1]) did it give?
**A.** Its pIC50 is under 4.48.

**Q.** How did the pIC50 (Monoglyceride lipase [1]) turn out when `COc1cccc(N2CCN(C(=O)c3ccc4nc(N5CCC(C)CC5)sc4c3)CC2)c1` was run?
**A.** The pIC50 was 5.18.

**Q.** How did the pIC50 (Monoglyceride lipase [1]) turn out when `CC1CCN(c2nc3ccc(C(=O)N4CCN(Cc5ccccc5)CC4)cc3s2)CC1` was run?
**A.** The pIC50 was 5.54.

**Q.** Which results are given for `COc1ccc(N2CCN(C(=O)c3ccc4nc(N5CCC(C)CC5)sc4c3)CC2)cc1`?
**A.** inhibition [2]: Active; Activity (RAW264.7 [3]): Dose-Dependent Effect; Activity (RAW264.7 [4]): Dose-Dependent Effect; pKd (Monoglyceride lipase [5]): 6.15; inhibition [6]: Active; Activity (RAW264.7 [7]): Dose-Dependent Effect; pIC50 (Monoglyceride lipase [1]): 5.55; inhibition [8]: Active

**Q.** `O=C(C1CCN(c2nc3ncccc3s2)CC1)N1CCN(Cc2ccc3c(c2)OCO3)CC1` was tested. Which pIC50 (Monoglyceride lipase [1]) did it give?
**A.** Its pIC50 is under 4.48.

**Q.** How did the pIC50 (Monoglyceride lipase [9]) turn out when `CC(C)=CCC[C@@H](C)[C@@H]1CC[C@]2(C)C3=C(CC[C@@]12C)[C@@]1(C)CC[C@H](O)C(C)(C)[C@@H]1CC3` [EUPHOL] was run?
**A.** Its pIC50 is 6.50.

**Q.** With `O=C(C1CCCN(c2nc3ncccc3s2)C1)N1CCN(Cc2ccc3c(c2)OCO3)CC1` (configuration not stated) as the compound, how does the pIC50 (Monoglyceride lipase [1]) read?
**A.** Its pIC50 is under 4.48.

**Q.** With `Cc1ccc(Cl)cc1N1CCN(C(=O)c2ccc3nc(N4CCC(C)CC4)sc3c2)CC1` as the compound, how does the pIC50 (Monoglyceride lipase [1]) read?
**A.** Its pIC50 is 5.24.

**Q.** With `COC(=O)[C@]1(C)CC[C@]2(C)CC[C@]3(C)C4=CC=C5C(=CC(=O)C(O)=C5C)[C@]4(C)CC[C@@]3(C)[C@@H]2C1` [PRISTIMERIN] as the compound, how does the pIC50 (Monoglyceride lipase [9]) read?
**A.** The pIC50 was 7.03.

**Q.** `COc1cc(N2CCN(C(=O)c3ccc4nc(N5CCC(C)CC5)sc4c3)CC2)cc(OC)c1OC` was tested. Which pIC50 (Monoglyceride lipase [1]) did it give?
**A.** The pIC50 was under 4.48.
